In the supplement of paper PMC6470124:

Assays:
[1] = absolute recovery over vacuum-assisted evaporative concentration; higher = better recovery; settings: enrichment method: VEC
In short: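 Samples of influent (6 mL), effluent (15 mL) and surface or nanopure water (60 mL) were spiked with standards before or after concentration, or left unspiked, at 200 ng/L (nanopure/surface) or 1000 ng/L (wastewater), adjusted by class and compound. Concentration was by evaporation at 55 °C and 20 mbar to about 0.3 mL, followed by adjustment to 0.4 mL and centrifugation. Internal standards were then added for LC-HRMS/MS analysis. Absolute recovery was (response ratio pre − unspiked)/(post − unspiked) × 100, using averages of ≥ 2 replicates.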

[2] = absolute recovery over mixed-bed multilayer solid-phase extraction; higher = better recovery; settings: enrichment method: SPE
In short: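 Wastewater (100–250 mL, adjusted to pH 6.5 and glass-fibre filtered) or 1000 mL unfiltered nanopure water was loaded on a three-layer mixed-bed cartridge and eluted with basic then acidic ethyl acetate/methanol. Standards were spiked before extraction, after it, or not at all, at 200 ng/L (water) or 1000 ng/L (wastewater), with class exceptions. Internal standards were added afterwards, then LC-HRMS/MS ran in both ionisation modes. Absolute recovery compares background-corrected response ratios of pre- versus post-spiked samples, averaged over at least two replicates.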

[3] = LC retention time (Atlantis T3, 5-95% MeOH gradient, 0.1% formic acid); higher = more retained / less polar
In short: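 Retention times were recorded for reference standards (purity ≥ 95%) on a polar reversed-phase C18 column (Atlantis T3, 3 × 150 mm, 3 μm) at 0.3 mL/min. Elution used water and methanol, each with 0.1% formic acid, in a gradient from 5 to 95% methanol over 17.5 min. Detection was by high-resolution tandem mass spectrometry on a QExactive Plus, with positive and negative electrospray in separate runs. Peaks were found and integrated in TraceFinder (5 ppm tolerance, at least three points per peak) and then checked by hand.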

| absolute recovery ([1]; wastewater effluent) [%] | absolute recovery ([1]; wastewater influent) [%] | absolute recovery ([2]; nanopure water) [%] | absolute recovery ([2]; surface water) [%] | absolute recovery ([2]; wastewater effluent) [%] | absolute recovery ([2]; wastewater influent) [%] | LC retention time [3] [min] | SMILES |
| --- | --- | --- | --- | --- | --- | --- | --- |
| 105 | 107 | 78.4 | 82.4 | 85.9 | 87.2 | 13.4 | C=CCOc1ccccc1OCC(O)C[NH2+]C(C)C (stereo not given) [Oxprenolol] |
| 105 | – | 77.2 | 73.9 | 72.6 | 73.8 | 11.7 | O=C([O-])c1cn(C2CC2)c2cc(N3CC[NH2+]CC3)c(F)cc2c1=O [Ciprofloxacin] |
| 108 | 108 | 76.8 | 81.4 | 85.3 | 96.4 | 11.8 | Cc1cc(O)nc(C(C)C)n1 [Pyrimidinol] |
| 51.4 | 56.6 | 100 | 111 | 100 | 77.4 | 20.7 | COc1ccc(C(=O)c2ccccc2)c(O)c1 [Benzophenon-3 (=2-Hydroxy-4-methoxybenzophenon)] |
| 97.4 | 134 | 85.5 | 71.8 | 81.5 | 89.8 | 20.1 | CON=C(C(=O)[O-])c1ccccc1COc1ccccc1C [Kresoxim-methyl-acid] |
| 102 | 107 | 93.7 | 94.9 | 93.8 | 93.9 | 12.7 | NC(=O)c1c(Cl)cccc1Cl [2-6-Dichlorbenzamid] |
| 117 | 109 | 93.2 | 111 | 93.7 | 70.7 | 16.2 | CC(COc1ccccc1Cc1ccccc1)[NH+]1CCCCC1 (stereo not given) [Benproperine] |
| 149 | – | 102 | – | – | – | 10.7 | CC(=O)N(CC(O)CN(C(C)=O)c1c(I)c(C(=O)NCC(O)CO)c(I)c(C(=O)NCC(O)CO)c1I)c1c(I)c(C(=O)NCC(O)CO)c(I)c(C(=O)NCC(O)CO)c1I (stereo not given) [Iodixanol] |
| 105 | 98.6 | 70 | 86.7 | 81 | 78.4 | 22.5 | CC(C)OC(=O)C(C)(C)Oc1ccc(C(=O)c2ccc(Cl)cc2)cc1 [Fenofibrat] |
| 95.8 | 92.8 | 73.5 | 81.4 | 76.2 | 83.3 | 19.2 | O=C([O-])Cc1ccccc1Nc1c(Cl)cc(O)cc1Cl [4-Hydroxydiclofenac A] |
| 110 | 98.1 | 103 | 91.8 | 91.4 | 89.8 | 13.8 | CC(C)[NH2+]CC(O)COc1ccc(COCCOC(C)C)cc1 (stereo not given) [Bisoprolol] |
| 115 | 109 | 95.7 | 104 | 97.2 | 93.4 | 19.6 | O=C(NCc1ncc(C(F)(F)F)cc1Cl)c1c(Cl)cccc1Cl [Fluopicolide] |
| 106 | 100 | 83.8 | 93.4 | 91.4 | 95.5 | 13.3 | Cc1cc(=O)n(-c2ccccc2)n1C [Phenazon (=Antipyrin)] |
| 106 | 101 | 98.6 | 96.1 | 91.7 | 90.1 | 16.5 | CC(C)(C)C(=O)C(Oc1ccc(Cl)cc1)n1ccnc1 (stereo not given) [Climbazol] |
| 56.2 | – | 82.7 | 66.5 | 53.5 | – | 22.2 | C=CCC1C=C(C)CC(C)CC(OC)C2OC(O)(C(=O)C(=O)N3CCCCC3C(=O)OC(C(C)=CC3CCC(O)C(OC)C3)C(C)C(O)CC1=O)C(C)CC2OC (stereo not given) [FK-506 (=Tacrolimus)] |
| 98.8 | 102 | 103 | – | 96.1 | 99.4 | 19.8 | O=C([O-])c1cccc(Oc2ccccc2)c1 [3-Phenoxybenzoic-acid] |
| 106 | 100 | 80 | 79.7 | 76 | 83.4 | 12.1 | C[NH2+]CC(c1ccc(O)cc1)C1(O)CCCCC1 (stereo not given) [N-O-Didesvenlafaxin] |
| 92.5 | 106 | 91.4 | 91.2 | 89.2 | 94.2 | 18.8 | CN(C)C(=O)NC1CCCCCCC1 [Cycluron] |
| 105 | 101 | 76.9 | 82.5 | 76.2 | 85.7 | 14.1 | C[NH2+]CC(c1ccc(OC)cc1)C1(O)CCCCC1 (stereo not given) [N-Desvenlafaxin] |
| 103 | 101 | 59.6 | 65.7 | 76 | 61.4 | 9.16 | CC(=O)Nc1c(I)c(C(=O)[O-])c(I)c(C(=O)NCCO)c1I [Ioxitalamic-acid] |
| 44.9 | 101 | 71.7 | 87.9 | 84.1 | – | 17.5 | CCCCc1oc2ccc(NS(C)(=O)=O)cc2c1C(=O)c1ccc(OCCC[NH+](CCCC)CCCC)cc1 [Dronedaron] |
| 108 | 90.1 | 86.3 | 79.5 | – | 65.9 | 10.1 | COCC(=O)Nc1c(I)c(C(=O)NCC(O)CO)c(I)c(C(=O)N(C)CC(O)CO)c1I (stereo not given) [Iopromid] |
| 106 | 105 | 92.3 | 86.2 | 91.2 | 94 | 18.7 | CC1CC2C3CCC4=CC(=O)C=CC4(C)C3(F)C(O)CC2(C)C1(O)C(=O)CO (stereo not given) [Dexamethason] |
| 104 | 103 | 98 | 98.8 | 92.9 | 94 | 19.5 | CC(C)(Oc1ccc(CCNC(=O)c2ccc(Cl)cc2)cc1)C(=O)[O-] [Bezafibrat] |
| 104 | 98.4 | 95.1 | 92 | 90.3 | 90 | 14.9 | COc1cc([N-]S(=O)(=O)c2ccc(N)cc2)nc(OC)n1 [Sulfadimethoxin] |
| 87 | 67.6 | 33.5 | 30.5 | 33.2 | 37 | 4.79 | NC(=O)c1ncn(C2OC(CO)C(O)C2O)n1 (stereo not given) [Ribavirin] |
| 102 | 92.6 | 86.5 | 90 | 85.3 | 86.5 | 11.3 | CC[NH+](CC)CCNC(=O)c1cc(Cl)c(N)cc1OC [Metoclopramid] |
| 100 | 102 | 82.8 | 86.5 | 91.2 | 84.9 | 14.9 | C[NH+](C)CCC=C1c2ccccc2COc2ccc(CC(=O)[O-])cc21 [Olopatadine] |
| 103 | 108 | 1.5 | – | – | – | 3.84 | C=CS(=O)(=O)[O-] [Vinylsulfonic-acid] |
| 116 | 61.4 | 87.6 | 100 | 95.5 | 95.1 | 20.3 | COC(=O)NC(C(=O)NC(Cc1ccccc1)C(O)CN(Cc1ccc(-c2ccccn2)cc1)NC(=O)C(NC(=O)OC)C(C)(C)C)C(C)(C)C (stereo not given) [Atazanavir] |

| SMILES | absolute recovery ([1]; wastewater effluent) [%] | absolute recovery ([1]; wastewater influent) [%] | absolute recovery ([2]; nanopure water) [%] | absolute recovery ([2]; surface water) [%] | absolute recovery ([2]; wastewater effluent) [%] | absolute recovery ([2]; wastewater influent) [%] | LC retention time [3] [min] |
| --- | --- | --- | --- | --- | --- | --- | --- |
| NC(=O)N=C1SCCN1Cc1ccc(Cl)nc1 [Thiacloprid-amide] | 106 | 104 | 109 | 108 | 104 | 96.3 | 13.2 |
| CNC(=O)Oc1cccc2c1OC(C)(C)C2 [Carbofuran] | 83.9 | 96.7 | 91.7 | 91.3 | 94.7 | 93.5 | 17 |
| CCNc1nc(NC(C)C)nc(OC)n1 [Atraton] | 101 | 102 | 92.8 | 94.2 | 90.4 | 96 | 14.4 |
| CCc1cccc(C)c1N(C(=O)CCl)C(C)COC (stereo not given) [Metolachlor] | 93.1 | 91.7 | – | 93 | 90.6 | 92.5 | 20.6 |
| CCOC(=O)C1(c2ccccc2)CC[NH+](C)CC1 [Meperidine] | 99.2 | 103 | 88.6 | 87.8 | 86.8 | 96.6 | 12.8 |
| CC1=NNC(=O)N(N=Cc2cccnc2)C1 [Pymetrozin] | 107 | 110 | 118 | 112 | 106 | 97 | 8.65 |
| CC(C)(C)C(O)(CCc1ccc(Cl)cc1)Cn1cncn1 (stereo not given) [Tebuconazol] | 106 | 99.8 | 98.5 | 94.7 | 96 | 94.3 | 20.9 |
| Cc1cc(C2CC2)nc(Nc2ccccc2)n1 [Cyprodinil] | 86.9 | 88.2 | 100 | 93.8 | 92.5 | 89.9 | 19.8 |
| O=c1[nH]c2c(c(=O)n1C1CCCCC1)CCC2 [Lenacil] | 102 | 103 | 93.2 | 87.6 | 92 | 92.4 | 18.6 |
| OC(Cc1ccccc1Cl)(Cn1cncn1)C1(Cl)CC1 (stereo not given) [Prothioconazole-desethio] | 141 | 128 | 109 | 86.3 | 104 | 104 | 20.6 |
| FC(F)(F)c1cccc(N2CC[NH2+]CC2)c1 [1-(3-Trifluoromethylphenyl)-piperazine] | 97.4 | 93 | 66 | 71.9 | 66.4 | 69.9 | 13.6 |
| C#CC(C)(C)NC(=O)c1cc(Cl)cc(Cl)c1 [Propyzamide] | 82 | 88.4 | 97.1 | 88.9 | 87.8 | 101 | 20 |
